The values below come from PubChem BioAssay (NCI).

SMILES strings stand for the structures.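 Five concentrations, 48 hours, 96-well plates. Here, GI50 denotes the concentration required for 50% inhibition of growth. The concentration for full growth arrest is given as TGI.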 Where only a bound is given, the exact number is not on record here.

Test systems include M14 melanoma; SR leukemia; 786-0 renal; SF-295 CNS; K-562 leukemia; MDA-MB-231 breast; UACC-257 melanoma; SW-620 colon; HT29 colon; U251 CNS.
Assay in all cases: DTP human tumour cell line panel, 48 h

For the compound `O=C(O[C@H]1CCN2C[C@H]3C[C@H](CN4C(=O)CCC[C@H]34)[C@@H]2C1)c1ccc(O)cc1`, the TGI in the assay on M14 melanoma, with SR leukemia, in the assay with 786-0 renal, with SF-295 CNS, in the assay on K-562 leukemia and with MDA-MB-231 breast was more than 100 µM each time. The TGI in the assay with UACC-257 melanoma, in the assay on SW-620 colon, in the assay with HT29 colon and in the assay on U251 CNS was more than 100 µM throughout.

On to `O=C1NC(c2cccc(OCc3ccccc3)c2)Nc2ccccc21` (stereo not drawn), for which the TGI in the assay with M14 melanoma worked out at 38.8 µM; with SR leukemia, 0.47 µM; in the assay with 786-0 renal, 38.8 µM; in the assay on SF-295 CNS, 4.12 µM; with K-562 leukemia, 35.6 µM; with MDA-MB-231 breast, 4.69 µM. Also, the TGI with UACC-257 melanoma was 50.7 µM; in the assay with SW-620 colon, more than 100 µM; in the assay on HT29 colon, 0.239 µM; with U251 CNS, 4.25 µM.

As for `CCC[CH2][Pb]([Cl])([CH2]CCC)[CH2]CCC`, the concentration for 50% growth inhibition (GI50) in the assay on M14 melanoma was 0.0192 µM; in the assay on SR leukemia, 0.0671 µM; with 786-0 renal, 0.0177 µM; in the assay on SF-295 CNS, 0.13 µM; in the assay with K-562 leukemia it was 0.0277 µM; in the assay on MDA-MB-231 breast, 0.0328 µM. Moreover, the GI50 in the assay with UACC-257 melanoma was 0.0589 µM; with SW-620 colon, 0.0185 µM; with HT29 colon it was 0.0252 µM; in the assay on U251 CNS, 0.0161 µM. Moreover, the TGI in the assay with M14 melanoma is 0.0417 µM; with 786-0 renal it was 0.037 µM; in the assay with SF-295 CNS, 0.26 µM; with K-562 leukemia, 0.931 µM; in the assay with MDA-MB-231 breast it was 0.122 µM; in the assay on UACC-257 melanoma, 0.157 µM. Further, the TGI in the assay on SW-620 colon is 0.0345 µM; with HT29 colon, 0.0645 µM; with U251 CNS, 0.0304 µM.

As for `CN(C)c1ccc(N=C2C=CC(=O)c3ccccc32)cc1`, the GI50 was 1.79 µM in the assay on M14 melanoma; 2.86 µM in the assay on SR leukemia; 15.2 µM with 786-0 renal; 1.68 µM with SF-295 CNS; 2 µM in the assay with K-562 leukemia; 0.899 µM with MDA-MB-231 breast. Also, the GI50 is 2.21 µM in the assay with UACC-257 melanoma, 1.68 µM in the assay with SW-620 colon, 3.62 µM in the assay with HT29 colon and 2.47 µM with U251 CNS. The concentration for total growth inhibition (TGI) in the assay on M14 melanoma was 3.61 µM; in the assay on SR leukemia, 14.1 µM; with 786-0 renal, 32.5 µM; with SF-295 CNS it was 3.66 µM; with K-562 leukemia it was 4.75 µM; with MDA-MB-231 breast, 12.7 µM. Further, the TGI in the assay on UACC-257 melanoma came to 5.45 µM; in the assay on SW-620 colon, 3.42 µM; with HT29 colon, 12.2 µM; with U251 CNS, 7.9 µM.

As for `Nc1ncnc2c1ccn2[C@@H]1O[C@H]([C@H](O)c2ccc(Cl)c(F)c2)[C@@H](O)[C@H]1O`, the GI50 in the assay on M14 melanoma, in the assay with SR leukemia, with 786-0 renal, in the assay on SF-295 CNS, in the assay on K-562 leukemia and with MDA-MB-231 breast was more than 100 µM in each case. For the same compound, the GI50 in the assay on UACC-257 melanoma is more than 100 µM; with SW-620 colon, more than 100 µM; in the assay with HT29 colon it was 36 µM; in the assay with U251 CNS it was more than 100 µM. In addition, the TGI in the assay on M14 melanoma, in the assay on SR leukemia, in the assay on 786-0 renal, in the assay on SF-295 CNS, in the assay on K-562 leukemia and in the assay on MDA-MB-231 breast was more than 100 µM throughout. The TGI with UACC-257 melanoma, in the assay on SW-620 colon, in the assay with HT29 colon and with U251 CNS was more than 100 µM throughout.

As to `[CH3][Sn]([CH3])([CH3])[O][N+](=O)[O-]`, the GI50 with M14 melanoma is 6.33 µM; with SR leukemia, 1.48 µM; in the assay on 786-0 renal, 1.92 µM; in the assay with SF-295 CNS, 9.92 µM; with K-562 leukemia, 2.63 µM; with MDA-MB-231 breast it was 3.67 µM. The GI50 in the assay on UACC-257 melanoma was 6.81 µM; in the assay with SW-620 colon it was 2.06 µM; in the assay on HT29 colon, 5.8 µM; in the assay on U251 CNS it was 1.45 µM. In addition, the TGI with M14 melanoma is more than 10 µM; with SR leukemia it was 3.33 µM; in the assay on 786-0 renal, 3.51 µM; in the assay on SF-295 CNS it was more than 10 µM; in the assay with K-562 leukemia, 7.39 µM; in the assay on MDA-MB-231 breast, 7.35 µM. For the same compound, the TGI was more than 10 µM with UACC-257 melanoma, 4.8 µM in the assay on SW-620 colon, more than 10 µM in the assay on HT29 colon and 2.77 µM in the assay on U251 CNS.

On to `C/C(=N/Nc1nc(C)cc(=O)[nH]1)C(=O)O`, for which the TGI with M14 melanoma, in the assay with SR leukemia, in the assay on 786-0 renal, in the assay on SF-295 CNS, in the assay with K-562 leukemia and with MDA-MB-231 breast was more than 100 µM throughout. Moreover, the TGI in the assay with UACC-257 melanoma, with SW-620 colon, with HT29 colon and in the assay with U251 CNS was more than 100 µM each time.

For `Nc1ccc(Sc2c3ccccc3nc3ccccc23)cc1`, the TGI in the assay on M14 melanoma was 30.1 µM; with SR leukemia, 32.4 µM; in the assay on 786-0 renal, 14.7 µM; in the assay with SF-295 CNS, 47.5 µM; with K-562 leukemia it was 22.6 µM; in the assay on MDA-MB-231 breast it was 28.1 µM. Moreover, the TGI is 33.1 µM with UACC-257 melanoma, 39 µM in the assay on SW-620 colon, 32 µM with HT29 colon and 28 µM in the assay with U251 CNS.

`C[C@@H](Oc1cc(-n2cnc3ccc(OC[C@@H](O)CO)cc32)sc1C(N)=O)c1ccccc1Cl`: the GI50 in the assay on M14 melanoma is 0.0993 µM; in the assay with SR leukemia, 0.0743 µM; in the assay with 786-0 renal, 0.669 µM; in the assay with SF-295 CNS, 0.318 µM; with K-562 leukemia, 0.0804 µM; with MDA-MB-231 breast, 0.416 µM. The GI50 with UACC-257 melanoma was 0.291 µM; in the assay on SW-620 colon it was 0.0633 µM; with HT29 colon, 0.0798 µM; in the assay on U251 CNS it was 0.126 µM. Besides, the concentration for total growth inhibition (TGI) with M14 melanoma, in the assay with 786-0 renal, in the assay on SF-295 CNS, in the assay on K-562 leukemia, in the assay with MDA-MB-231 breast and in the assay on UACC-257 melanoma was more than 25 µM in each case. Besides, the TGI in the assay on SW-620 colon, in the assay on HT29 colon and in the assay on U251 CNS was more than 25 µM in each case.

Broadly, the TGI is the concentration giving total growth inhibition. Read a high TGI as less potent growth arrest. By GI50 is commonly meant the concentration that inhibits growth by half.
